Laboratory results as given in patent US20260306525A1, “COMBINATION THERAPY GLUCOCORTICOIDS AND GINSENOSIDE” (FYTAGORAS B.V., priority 2023, published 2026).
pIC50: −log10 of the molar value.

Columns and labels:
GR [1] = molecular target: T1, GR (Homo sapiens, UniProt P04150); experiment: nuclear translocation of GR in HeLa cells (immunocytochemistry); type: cell-based; design: nuclear translocation by immunocytochemistry (detected with anti-GR antibody D6H2L); conditions: 6 h
T1 sequence (P04150 1-777): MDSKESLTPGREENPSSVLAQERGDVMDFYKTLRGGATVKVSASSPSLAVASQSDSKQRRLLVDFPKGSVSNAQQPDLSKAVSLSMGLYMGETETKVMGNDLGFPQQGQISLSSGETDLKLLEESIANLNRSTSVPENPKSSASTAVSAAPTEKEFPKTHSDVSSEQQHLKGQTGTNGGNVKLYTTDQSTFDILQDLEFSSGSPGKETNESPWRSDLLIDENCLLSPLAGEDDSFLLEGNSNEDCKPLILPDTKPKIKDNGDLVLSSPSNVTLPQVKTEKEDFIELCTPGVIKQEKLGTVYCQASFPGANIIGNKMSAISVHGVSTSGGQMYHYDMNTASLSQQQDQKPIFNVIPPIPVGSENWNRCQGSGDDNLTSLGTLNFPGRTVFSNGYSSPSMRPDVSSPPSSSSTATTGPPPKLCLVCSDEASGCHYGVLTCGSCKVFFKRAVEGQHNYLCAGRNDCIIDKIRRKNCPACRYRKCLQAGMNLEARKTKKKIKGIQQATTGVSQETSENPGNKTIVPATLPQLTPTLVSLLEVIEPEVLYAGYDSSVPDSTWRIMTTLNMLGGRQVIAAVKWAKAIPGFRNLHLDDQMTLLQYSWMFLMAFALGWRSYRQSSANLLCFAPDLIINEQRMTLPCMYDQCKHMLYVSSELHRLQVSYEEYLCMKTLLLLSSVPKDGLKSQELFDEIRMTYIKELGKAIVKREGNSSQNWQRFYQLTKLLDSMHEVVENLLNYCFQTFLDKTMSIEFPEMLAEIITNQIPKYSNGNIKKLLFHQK
Protocol: HeLa (human cervical cancer) cells were cultured in Dulbecco's Modified Eagle's (DMEM) High Glucose (HG) medium without phenol red supplemented with 10% Fetal Calf Serum (FCS) and 10% Glutamax (Sigma-Aldrich). The cells were maintained at 37° C. and 5% CO2. At 24 h before adding the treatment, the medium was replaced by DMEM HG with 10% charcoal-inactivated serum and 10% Glutamax (Sigma-Aldrich). The cells were exposed to short- and long-term compound treatments. […] Subsequently, TNF-α (10 ng/ml) was added along with the compound treatments for 6 h (this last step was not added in the actinomycin-D and cycloheximide experiments).
To determine the nuclear translocation of GR, immunocytochemistry on GR in Hela cells was performed. The cells were seeded in Nunc™ Lab-Tek™ II Chamber Slide™ System (ThermoFisher Scientific), and cultured in DMEM HG (without phenol red) supplemented with 10% charcoal inactivated serum and […] Glutamax (Sigma-Aldrich) for 48 h. […] In each experiment, 40 randomly selected cells from each treatment group were analyzed. The relative nuclear translocation of the GR was quantified by determining the integrated fluorescence intensity in the nucleus and the whole cell using Fiji ImageJ v1.53c, and these values were corrected for the mean background fluorescence. The percentage of nuclear translocation was assessed by determining the corrected density in the nucleus relative to the corrected density in the whole cell (in %).

GR [2] = molecular target: T1, GR; experiment: PolarScreen Glucocorticoid Receptor competitive binding assay; design: followed by GR Full Length (partially purified receptor in storage buffer); purchased ThermoFisher Scientific
Protocol: To determine the relative binding affinities of the different compounds for the human GR in vitro, the PolarScreen™ Glucocorticoid Receptor Competitor Assay Kit (ThermoFisher Scientific, Waltham, MA, USA) was used following the manufacturer's instructions. Briefly, test compounds were first dissolved in DMSO to a 10 mM stock concentration and further diluted in GR buffer (100 mM potassium phosphate (pH 7.4), 200 mM Na2MoO4, 1 mM EDTA, and 20% DMSO). Serial dilutions of the compounds were transferred to a Corning® black 384-well plate and Fluormone GS red™ was added, followed by GR Full Length (partially purified receptor in storage buffer). The plate was incubated for 4 h at RT in the dark and fluorescence polarization was measured with a CLARIOStar Microplate Reader (BMG Labtech, Ortenberg, Germany). Obtained values were normalized to the assay maximum (no ligand) and minimum control (10 µM dexamethasone), and relative percentages of polarization were determined. Dose-response curves were fitted enabling the calculations of IC50 values for each compound.

| Structure (SMILES) | nuclear translocation level of GR (GR [1]; Rg1 5, 10 and 20 μM, vs vehicle) | pIC50 (GR [2]; fluorescence polarization, 4 h at RT) | relative GR binding affinity, times lower than beclomethasone (GR [2]; vs beclomethasone) | nuclear translocation level of GR (GR [1]; beclomethasone 0.01 μM, vs vehicle) | nuclear translocation level of GR (GR [1]; beclomethasone 0.1 and 1 μM) |
| --- | --- | --- | --- | --- | --- |
| CC(C)=CCC[C@](C)(O[C@@H]1O[C@H](CO)[C@@H](O)[C@H](O)[C@H]1O)[C@H]1CC[C@]2(C)[C@@H]1[C@H](O)C[C@@H]1[C@@]3(C)CC[C@H](O)C(C)(C)[C@@H]3[C@@H](O[C@@H]3O[C@H](CO)[C@@H](O)[C@H](O)[C@H]3O)C[C@]12C [Rg1, (3β,6α, 12β)-3,12-Dihydroxydammar-24-ene-6,20-diyl bis-β-D-glucopyranoside] | only increased the translocation level compared to the vehicle treatment at 20 μM, still inducing only partial translocation | 4.66 | ~ 4,000 times | – | – |
| C[C@H]1C[C@H]2[C@@H]3CCC4=CC(=O)C=C[C@]4(C)[C@@]3(Cl)[C@@H](O)C[C@]2(C)[C@@]1(O)C(=O)CO [beclomethasone, reference compound] | – | – | – | significantly increased the translocation level compared to vehicle | maximal nuclear translocation was observed |
